The compounds below were run against Hydroxycarboxylic acid receptor 2 (Homo sapiens, UniProt Q8TDS4) (assay: Agonist activity at human HM74A transfected in CHO-K1 cells for 4 hrs by [35S]-GTPgammaS binding assay).
Sequence of Hydroxycarboxylic acid receptor 2 (Q8TDS4 whole entry): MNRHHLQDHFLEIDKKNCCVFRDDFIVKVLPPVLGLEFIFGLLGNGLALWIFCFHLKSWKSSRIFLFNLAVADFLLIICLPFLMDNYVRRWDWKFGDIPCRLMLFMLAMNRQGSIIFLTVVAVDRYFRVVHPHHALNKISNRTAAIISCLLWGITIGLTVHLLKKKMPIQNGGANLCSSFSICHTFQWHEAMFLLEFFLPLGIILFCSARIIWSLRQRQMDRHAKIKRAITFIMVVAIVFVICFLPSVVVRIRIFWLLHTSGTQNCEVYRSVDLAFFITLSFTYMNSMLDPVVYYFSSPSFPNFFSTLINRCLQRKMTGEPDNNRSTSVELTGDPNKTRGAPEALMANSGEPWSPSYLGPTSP
Format: functional, cell-based
With O=c1[nH]c(=O)n(CCC2CCC2)c2nc(Cl)[nH]c12 the EC50 was less than 12.6 µM and the Efficacy was greater than 30%. CCCCCCCCn1c(=O)[nH]c(=O)c2[nH]c(Cl)nc21 gave an EC50 of less than 12.6 µM and an Efficacy greater than 30%. For CCCCn1c(=O)[nH]c(=O)c2[nH]c(Cl)nc21, the EC50 was less than 12.6 µM and the Efficacy was greater than 30%. With CCCCn1c(=O)n(CC)c(=O)c2[nH]c(Cl)nc21 the EC50 was less than 12.6 µM and the Efficacy was greater than 30%. CCCCCn1c(=O)n(C)c(=O)c2[nH]c(C#N)nc21 gave an EC50 of less than 12.6 µM and an Efficacy greater than 30%. O=c1[nH]c(=O)n(CC2CCC2)c2nc(Cl)[nH]c12 gave an EC50 of less than 12.6 µM and an Efficacy greater than 30%. In the case of CC(C)CCCCCn1c(=O)[nH]c(=O)c2[nH]c(Cl)nc21, the EC50 is reported as less than 12.6 µM and the Efficacy is reported as greater than 30%. In the case of Cn1c(=O)c2[nH]c(Cl)nc2n(CCCC#N)c1=O, the EC50 is reported as less than 12.6 µM and the Efficacy is reported as greater than 30%. For C=CCCn1c(=O)[nH]c(=O)c2[nH]c(Cl)nc21, the EC50 was less than 12.6 µM and the Efficacy was greater than 30%. CCC(C)Cn1c(=O)[nH]c(=O)c2[nH]c(Cl)nc21 (racemic) was tested, and the EC50 was less than 12.6 µM and the Efficacy was greater than 30%. O=c1[nH]c(=O)n(CCC(F)(F)F)c2nc(Cl)[nH]c12 showed an EC50 of less than 12.6 µM and an Efficacy greater than 30%. CCn1c(=O)c2[nH]c(Cl)nc2n(CC(F)(F)F)c1=O gave an EC50 of less than 12.6 µM and an Efficacy greater than 30%. O=c1c2[nH]c(Cl)nc2n(CCCC(F)(F)F)c(=O)n1CCCC(F)(F)F showed an EC50 of less than 12.6 µM and an Efficacy greater than 30%. CCCCn1c(=O)n(C)c(=O)c2[nH]c(Cl)nc21 gave an Efficacy greater than 30%. CCC(C)CCn1c(=O)[nH]c(=O)c2[nH]c(Cl)nc21 (racemic) gave an EC50 of less than 12.6 µM and an Efficacy greater than 30%. N#CCn1c(=O)c2[nH]c(Cl)nc2n(CCC2CC2)c1=O gave an EC50 of less than 12.6 µM and an Efficacy greater than 30%. With CCCCCn1c(=O)n(C)c(=O)c2[nH]c(Cl)nc21 the EC50 was less than 12.6 µM and the Efficacy was greater than 30%. With O=c1[nH]c(=O)n(CC2CC2)c2nc(Cl)[nH]c12 the EC50 was less than 12.6 µM and the Efficacy was greater than 30%. Compound CCCCCCn1c(=O)n(C)c(=O)c2[nH]c(Cl)nc21 has an EC50 of less than 12.6 µM and an Efficacy greater than 30%. For O=c1[nH]c(=O)n(CCCC2CC2)c2nc(Cl)[nH]c12, the EC50 was less than 12.6 µM and the Efficacy was greater than 30%. CCCCn1c(=O)n(C)c(=O)c2[nH]c(C#N)nc21 was tested, and the EC50 was less than 12.6 µM and the Efficacy was greater than 30%. For N#CCCCn1c(=O)[nH]c(=O)c2[nH]c(Cl)nc21, the EC50 was less than 12.6 µM and the Efficacy was greater than 30%. N#CCn1c(=O)[nH]c(=O)c2[nH]c(Cl)nc21 gave an EC50 of less than 12.6 µM and an Efficacy greater than 30%. O=c1[nH]c(=O)n(CC2CCCC2)c2nc(Cl)[nH]c12 showed an EC50 of less than 12.6 µM and an Efficacy greater than 30%. In the case of CCCCCCn1c(=O)[nH]c(=O)c2[nH]c(Cl)nc21, the EC50 is reported as less than 12.6 µM and the Efficacy is reported as greater than 30%. CCCCn1c(=O)n(CC#N)c(=O)c2[nH]c(Cl)nc21 gave an EC50 of less than 12.6 µM and an Efficacy greater than 30%. For N#CCn1c(=O)c2[nH]c(Cl)nc2n(CC#N)c1=O, the EC50 was less than 12.6 µM and the Efficacy was greater than 30%. CCCn1c(=O)[nH]c(=O)c2[nH]c(Cl)nc21 showed an EC50 of less than 12.6 µM and an Efficacy greater than 30%. Work on O=c1[nH]c(=O)n(CCCCCF)c2nc(Cl)[nH]c12 yielded an EC50 of less than 12.6 µM and an Efficacy greater than 30%. CCCCn1c(=O)c2[nH]c(I)nc2n(CCCC)c1=O gave an EC50 of less than 12.6 µM and an Efficacy greater than 30%. O=c1[nH]c(=O)n(CCCCCCF)c2nc(Cl)[nH]c12 showed an EC50 of less than 12.6 µM and an Efficacy greater than 30%. O=c1[nH]c(=O)n(CCC2CCCCC2)c2nc(Cl)[nH]c12 gave an EC50 of less than 12.6 µM and an Efficacy greater than 30%. Compound O=c1[nH]c(=O)n(CCCCF)c2nc(Cl)[nH]c12 has an EC50 of less than 12.6 µM and an Efficacy greater than 30%. CC(C)CCn1c(=O)[nH]c(=O)c2[nH]c(Cl)nc21 gave an EC50 of less than 12.6 µM and an Efficacy greater than 30%. Work on CCCCCCCCCCn1c(=O)[nH]c(=O)c2[nH]c(Cl)nc21 yielded an EC50 of less than 12.6 µM and an Efficacy greater than 30%. CCn1c(=O)n(C)c(=O)c2[nH]c(Cl)nc21 showed an EC50 of less than 12.6 µM and an Efficacy greater than 30%. CC(C)CCCn1c(=O)[nH]c(=O)c2[nH]c(Cl)nc21 showed an EC50 of less than 12.6 µM and an Efficacy greater than 30%. Work on O=c1[nH]c(=O)n(CCCC(F)(F)F)c2nc(Cl)[nH]c12 yielded an EC50 of less than 12.6 µM and an Efficacy greater than 30%. CCCCn1c(=O)c2[nH]c(C#N)nc2n(CCCC)c1=O was tested, and the EC50 was less than 12.6 µM and the Efficacy was greater than 30%. For CCCC(C)Cn1c(=O)[nH]c(=O)c2[nH]c(Cl)nc21 (racemic), the EC50 was less than 12.6 µM and the Efficacy was greater than 30%. O=c1c2[nH]c(Cl)nc2n(CC(F)(F)F)c(=O)n1CCCC(F)(F)F gave an EC50 of less than 12.6 µM and an Efficacy greater than 30%. Work on O=c1[nH]c(=O)n(CCC2CC2)c2nc(Cl)[nH]c12 yielded an EC50 of less than 12.6 µM and an Efficacy greater than 30%. For C=CCCCn1c(=O)[nH]c(=O)c2[nH]c(Cl)nc21, the EC50 was less than 12.6 µM and the Efficacy was greater than 30%. For Cn1c(=O)c2[nH]c(Cl)nc2n(CCCC(F)(F)F)c1=O, the EC50 was less than 12.6 µM and the Efficacy was greater than 30%. Compound CC(C)(C#N)CCCCn1c(=O)[nH]c(=O)c2[nH]c(Cl)nc21 has an EC50 of less than 12.6 µM and an Efficacy greater than 30%. O=c1[nH]c(=O)n(CCCF)c2nc(Cl)[nH]c12 showed an EC50 of less than 12.6 µM and an Efficacy greater than 30%. Compound O=c1[nH]c(=O)n(CC(F)(F)F)c2nc(Cl)[nH]c12 has an EC50 of less than 12.6 µM and an Efficacy greater than 30%. Compound O=c1[nH]c(=O)n(CC2CCCCC2)c2nc(Cl)[nH]c12 has an EC50 of less than 12.6 µM and an Efficacy greater than 30%. In the case of CCCCCn1c(=O)[nH]c(=O)c2[nH]c(Cl)nc21, the EC50 is reported as less than 12.6 µM and the Efficacy is reported as greater than 30%. In the case of CCCn1c(=O)n(C)c(=O)c2[nH]c(Cl)nc21, the EC50 is reported as less than 12.6 µM and the Efficacy is reported as greater than 30%. For CCCCCn1c(=O)n(C)c(=O)c2[nH]c(Br)nc21, the EC50 was less than 12.6 µM and the Efficacy was greater than 30%. CCCn1c(=O)c2[nH]c(Cl)nc2n(CC(F)(F)F)c1=O was tested, and the EC50 was less than 12.6 µM and the Efficacy was greater than 30%. In the case of O=c1[nH]c(=O)n(CCC2CCCC2)c2nc(Cl)[nH]c12, the EC50 is reported as less than 12.6 µM and the Efficacy is reported as greater than 30%. Compound CCCn1c(=O)n(CC#N)c(=O)c2[nH]c(Cl)nc21 has an EC50 of less than 12.6 µM and an Efficacy greater than 30%.

Source: ChEMBL document CHEMBL3727370, “HM74 receptor agonists:xanthine derivatives, corresponding pharmaceutical compositions, treatment methods and processes” (2013)
